The values below are quoted from earlier work in patent US20220064092A1, “METHYLATION PROCESS” (priority 2019, published 2022).

For the data set the following is noted: qualitative statement.

`Oc1ccc(/C=C/c2cc(O)cc(O)c2)cc1` [resveratrol, 3,5,4′-trihydroxy-trans-stilbene]: the half-life entry was “very limited half-life”.
